Data reported in paper PMC10672842, “Anti-Trypanosoma cruzi Activity, Mutagenicity, Hepatocytotoxicity and Nitroreductase Enzyme Evaluation of 3-Nitrotriazole, 2-Nitroimidazole and Triazole Derivatives” (Molecules, 2023).
Read-outs that look alike come from different tables or passages of the source.

What was measured:
S. typhimurium TA98 = test: Salmonella reverse mutation assay (Ames test, preincubation), TA98
Protocol: (§1) The compounds were tested in a reverse mutation assay preincubation protocol in the absence and presence of metabolic activation following standard protocols previously proposed by Maron and Ames. The histidine-dependent (his^−) strains TA98 and TA100 of Salmonella typhimurium were inoculated in 10 mL of Oxoid nutrient broth No. 2 containing 25 µg/mL ampicillin and incubated overnight (15–18 h) at 37 ± 1 °C on an orbital shaker (CT-712, Cientec, Belo Horizonte, MG, Brazil) at 150 rpm, obtaining a concentration of 1–2 × 10^9 cells/mL, confirmed by titration in nutrient agar plates. Briefly, 100 µL of stationary growth cultures of each strain were preincubated for 20 min on an orbital shaker (150 rpm) at 37 ± 1 °C, with 500 µL of 0.2 M phosphate buffer pH 7.4, or 500 µL of S9 mix 4% (Molecular Toxicology, Baltimore, MD, USA), and 100 µL of compound dilutions (0–5000 µM) or controls. DMSO 1% was used as a negative control. […] After incubation, 2 mL of top agar (0.7% agar, 0.5% NaCl, 0.05 mM L-histidine and D-biotin) at 45 ± 3 °C was added and gently mixed. The final mixture was poured on glucose minimal agar plates (1.5% agar, 10 g/L MgSO4·7H2O; 100 g/L of C6H8O7·H2O; 500 g/L K2HPO4; 175 g/L Na(NH4)HPO4·4H2O, 2% glucose) and incubated for 72 h at 37 ± 1 °C. The results were expressed as the mean of revertant colonies (His^+) per plate, standard deviation (SD) and mutagenicity induction fold (IF), calculated as the ratio between the number of colonies in the test group and the number of colonies in the negative control group. Mutagenic potency was calculated as the slope of the linear portion of the concentration–response function and expressed as revertants/µM. All assays were performed in triplicate and repeated at least two times. Statistical analyses were carried out in GraphPad Prism software (version 5.00, GraphPad Software, Boston, MA, USA).

[1] = system: T. cruzi nitroreductase enzyme (TcNTR); test: Kinetic assay with Trypanosoma cruzi nitroreductase enzyme (NADH oxidation); format: biochemical
Protocol: To determine a potential mechanism of action, nitroazole derivatives 5, 6, 8 and 9 were evaluated as substrates of the T. cruzi nitroreductase enzyme (TcNTR) and compared to BZN, the reference prodrug (Table 2). The enzymatic activity was measured by monitoring the oxidation of NADH, the first substrate of the enzyme, via spectrophotometric assays. […] At a concentration of 25 µM, derivatives 5 and 8 were metabolized at rates 2.3 and 2.6 times higher than that of BZN, respectively. At 50 µM, the compounds presented metabolism rates 1.6 and 3.0 times higher than that of BZN, respectively.
The protocols for expressing, purifying and conducting kinetic analysis with the recombinant TcNTR enzyme were adapted from the methods originally developed by Shane Wilkinson, with certain modifications.
For the kinetics assays, it was prepared a 200 μL solution which included 50 mM Tris-Base at pH 7.5, with a constant concentration of both NADH (50 μM) and the substances 5, 6, 8, 9 or BZN. Specifically, two distinct fixed concentrations (25 and 50 μM) of the substances 5, 6, 8, 9 or BZN were tested. These prepared mixtures were then incubated for 5 min at room temperature. Subsequently, the reaction was initiated by adding NTR to achieve a final concentration of 10 μg/mL. The reaction rates were monitored using a Hitachi U-2900 spectrophotometer, measuring the consumption of the primary substrate, NADH (λ = 340 nm; ε = 6.220 M^−1 cm^−1), over a 2-min interval. The resulting data curves were analyzed through linear regression using OriginPro 2016 software. To evaluate the reaction rate (Kobs) obtained from the 25 and 50 μM concentrations of each substrate, comparisons were made with the reference values for BZN. Measurement errors were calculated using the formula: Error = Z × σ/√n, where ‘Z’ denotes the critical value, ‘σ’ represents the standard deviation and ‘n’ is the number of test measurements, which were performed at least in triplicate.

S. typhimurium TA100 = system: S. typhimurium TA100
Protocol: as §1

With `O=[N+]([O-])c1nccn1CC(O)c1ccc(F)cc1F` (stereo not shown) [Compound 9, 1-(2,4-Difluorophenyl)-2-(2-nitro-1H-imidazol-1-yl)ethanol] the “IF (induction factor)” value (S. typhimurium TA98; TA98, +S9, 0.5 µM) was 0.8, the “revertant His+ colonies, mean ± SD” value (S. typhimurium TA98; TA98, +S9, 0.5 µM) was 18 ± 2 and the “IF (induction factor)” value (S. typhimurium TA98; TA98, +S9, 5 µM) was 0.8. The “revertant His+ colonies, mean ± SD” value (S. typhimurium TA98; TA98, +S9, 5 µM) was 18 ± 2, the “IF (induction factor)” value (S. typhimurium TA98; TA98, +S9, 50 µM) was 0.9 and the “revertant His+ colonies, mean ± SD” value (S. typhimurium TA98; TA98, +S9, 50 µM) was 22 ± 8. For the same compound, the “IF (induction factor)” value (S. typhimurium TA98; TA98, +S9, 500 µM) was 1.0, the “revertant His+ colonies, mean ± SD” value (S. typhimurium TA98; TA98, +S9, 500 µM) was 24 ± 5 and the “IF (induction factor)” value (S. typhimurium TA98; TA98, +S9, 5000 µM) was 1.2. For the same compound, the “revertant His+ colonies, mean ± SD” value (S. typhimurium TA98; TA98, +S9, 5000 µM) was 28 ± 2, the “IF (induction factor)” value (S. typhimurium TA98; TA98, −S9, 0.5 µM) was 0.7 and the “revertant His+ colonies, mean ± SD” value (S. typhimurium TA98; TA98, −S9, 0.5 µM) was 18 ± 6. For the same compound, the “IF (induction factor)” value (S. typhimurium TA98; TA98, −S9, 5 µM) was 0.7, the “revertant His+ colonies, mean ± SD” value (S. typhimurium TA98; TA98, −S9, 5 µM) was 18 ± 2 and the “IF (induction factor)” value (S. typhimurium TA98; TA98, −S9, 50 µM) was 1.1. The “revertant His+ colonies, mean ± SD” value (S. typhimurium TA98; TA98, −S9, 50 µM) was 29 ± 3, the “IF (induction factor)” value (S. typhimurium TA98; TA98, −S9, 500 µM) was 1.8 and the “revertant His+ colonies, mean ± SD” value (S. typhimurium TA98; TA98, −S9, 500 µM) was 49 ± 5. For the same compound, the “IF (induction factor)” value (S. typhimurium TA98; TA98, −S9, 5000 µM) was 6.5, the “revertant His+ colonies, mean ± SD” value (S. typhimurium TA98; TA98, −S9, 5000 µM) was 173 ± 21 and the “IF (induction factor)” value (S. typhimurium TA1535; TA1535, +S9, 0.5 µM) was 1.3. For the same compound, the “revertant His+ colonies, mean ± SD” value (S. typhimurium TA1535; TA1535, +S9, 0.5 µM) was 14 ± 2, the “IF (induction factor)” value (S. typhimurium TA1535; TA1535, +S9, 5 µM) was 2.1 and the “revertant His+ colonies, mean ± SD” value (S. typhimurium TA1535; TA1535, +S9, 5 µM) was 23 ± 1. The “IF (induction factor)” value (S. typhimurium TA1535; TA1535, +S9, 50 µM) was 2.2, the “revertant His+ colonies, mean ± SD” value (S. typhimurium TA1535; TA1535, +S9, 50 µM) was 24 ± 1 and the “revertant His+ colonies, mean ± SD” value (S. typhimurium TA1535; TA1535, +S9, 500 µM) was “Cytotoxic”. For the same compound, the “Mutagenicity in the Ames test (verdict)” value (S. typhimurium TA1535; TA1535, absence or presence of metabolic activation) was “mutagenic”, the “IF (induction factor)” value (S. typhimurium TA1535; TA1535, −S9, 0.5 µM) was 1.8 and the “revertant His+ colonies, mean ± SD” value (S. typhimurium TA1535; TA1535, −S9, 0.5 µM) was 14 ± 1. For the same compound, the “IF (induction factor)” value (S. typhimurium TA1535; TA1535, −S9, 5 µM) was 1.8, the “revertant His+ colonies, mean ± SD” value (S. typhimurium TA1535; TA1535, −S9, 5 µM) was 14 ± 4 and the “IF (induction factor)” value (S. typhimurium TA1535; TA1535, −S9, 50 µM) was 2.8. The “revertant His+ colonies, mean ± SD” value (S. typhimurium TA1535; TA1535, −S9, 50 µM) was 22 ± 1, the “IF (induction factor)” value (S. typhimurium TA1535; TA1535, −S9, 500 µM) was 2.0 and the “revertant His+ colonies, mean ± SD” value (S. typhimurium TA1535; TA1535, −S9, 500 µM) was 16 ± 3. For the same compound, the “revertant His+ colonies, mean ± SD” value (S. typhimurium TA1535; TA1535, −S9, 5000 µM) was “Cytotoxic”, the “Kobs Deriv./Kobs BZN 25 µM” value ([1]; 25 µM derivative, ratio of mean Kobs to BZN) was 0.8 and the “consumption rate by TcNTR, times higher than that of 6” value ([1]; 50 µM) was 4.9. For the same compound, the “Kobs Deriv./Kobs BZN 50 µM” value ([1]; 50 µM derivative, ratio of mean Kobs to BZN) was 1.2, the “Mutagenic potency (slope of the linear portion of the concentration–response function)” value (S. typhimurium TA100; TA100, +S9) was 292.1 revertants/µM and the “IF (induction factor)” value (S. typhimurium TA100; TA100, +S9, 0.5 µM) was 1.5. The “revertant His+ colonies, mean ± SD” value (S. typhimurium TA100; TA100, +S9, 0.5 µM) was 159 ± 7, the “IF (induction factor)” value (S. typhimurium TA100; TA100, +S9, 5 µM) was 2.1 and the “revertant His+ colonies, mean ± SD” value (S. typhimurium TA100; TA100, +S9, 5 µM) was 218 ± 14. The “IF (induction factor)” value (S. typhimurium TA100; TA100, +S9, 50 µM) was 2.2, the “revertant His+ colonies, mean ± SD” value (S. typhimurium TA100; TA100, +S9, 50 µM) was 233 ± 48 and the “IF (induction factor)” value (S. typhimurium TA100; TA100, +S9, 500 µM) was 9.7. The “revertant His+ colonies, mean ± SD” value (S. typhimurium TA100; TA100, +S9, 500 µM) was 1025 ± 16, the “IF (induction factor)” value (S. typhimurium TA100; TA100, +S9, 5000 µM) was 11.5 and the “revertant His+ colonies, mean ± SD” value (S. typhimurium TA100; TA100, +S9, 5000 µM) was 1216 ± 113. The “Mutagenicity in the Ames test (verdict)” value (S. typhimurium TA100; TA100, absence or presence of metabolic activation) was “mutagenic”, the “Mutagenic potency (slope of the linear portion of the concentration–response function)” value (S. typhimurium TA100; TA100, −S9) was 250.3 revertants/µM and the “IF (induction factor)” value (S. typhimurium TA100; TA100, −S9, 0.5 µM) was 1.0. The “revertant His+ colonies, mean ± SD” value (S. typhimurium TA100; TA100, −S9, 0.5 µM) was 73 ± 5, the “IF (induction factor)” value (S. typhimurium TA100; TA100, −S9, 5 µM) was 1.2 and the “revertant His+ colonies, mean ± SD” value (S. typhimurium TA100; TA100, −S9, 5 µM) was 88 ± 7. For the same compound, the “IF (induction factor)” value (S. typhimurium TA100; TA100, −S9, 50 µM) was 2.3, the “revertant His+ colonies, mean ± SD” value (S. typhimurium TA100; TA100, −S9, 50 µM) was 164 ± 16 and the “IF (induction factor)” value (S. typhimurium TA100; TA100, −S9, 500 µM) was 4.9. The “revertant His+ colonies, mean ± SD” value (S. typhimurium TA100; TA100, −S9, 500 µM) was 347 ± 24, the “IF (induction factor)” value (S. typhimurium TA100; TA100, −S9, 5000 µM) was 16.7 and the “revertant His+ colonies, mean ± SD” value (S. typhimurium TA100; TA100, −S9, 5000 µM) was 1195 ± 160. For the same compound, the “Mutagen classification according to Claxton et al.” value (S. typhimurium TA100; TA100, −S9 and +S9) was “highly inductive mutagen”.
